From patent publication US20240132431A1, “METHOD FOR ALKYLATING ACIDIC FUNCTIONAL GROUP” (Chugai Seiyaku Kabushiki Kaisha, priority 2021, published 2024)

Target: T1, Bcl-2 protein (Recombinant Human Bcl-2 Protein) (Homo sapiens, UniProt P10415)
T1 construct: purchased Novus NBP2-34889
Experiment: Binding evaluation of mixture library compounds to Bcl-2 using AS-MS (affinity selection mass spectrometry)
Details: AS-MS on the mixture of 1200 library compounds, ASMS Ratio(%)=(A−C)/B×100; for ASMS ratio (%) n = 1: replicate n = 1; for ASMS ratio (%) n = 2: replicate n = 2
How it was run: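 Affinity selection MS: Bcl-2 20 μM + 1200-cpd mixture, […]/cpd, Tris pH 7.4 buffer w/ Tween-20, DTT; 1 h 23° C dark; P-2 spin SEC; MeCN/MeOH extraction; RP LC/MS. ASMS Ratio(%) = (A−C)/B×100.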

T1 sequence (P10415 whole entry): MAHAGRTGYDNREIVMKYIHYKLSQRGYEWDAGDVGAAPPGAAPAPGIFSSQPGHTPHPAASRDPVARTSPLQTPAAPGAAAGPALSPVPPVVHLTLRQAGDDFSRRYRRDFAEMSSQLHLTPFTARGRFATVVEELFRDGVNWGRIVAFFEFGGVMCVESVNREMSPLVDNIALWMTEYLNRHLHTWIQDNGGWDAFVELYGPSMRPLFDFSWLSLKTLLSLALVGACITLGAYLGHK

SMILES	ASMS ratio (%) n = 1 [%]	ASMS ratio (%) n = 2 [%]
CCOc1cncc(-c2cc(C(=O)N3CCN(c4ccc(C(=O)Nc5ccc(OC)cc5)nn4)CC3)cc(C(F)(F)F)c2)c1 [B1O018-01, 6-[4-[3-(5-Ethoxypyridin-3-yl)-5-(trifluoromethyl)benzoyl]piperazin-1-yl]-N-(4-methoxyphenyl)pyridazine-3-carboxamide]	1.0	3.2
CCOc1cccc(C#Cc2cc(C(=O)N3CCN(c4ccc(C(=O)Nc5ccc(OC)cc5)nn4)CC3)cc(C(F)(F)F)c2)c1 [B1O019-01, 6-[4-[3-[2-(3-Ethoxyphenyl)ethynyl]-5-(trifluoromethyl)benzoyl]piperazin-1-yl]-N-(4-methoxyphenyl)pyridazine-3-carboxamide]	0.6	0.2
CCOc1cncc(C#Cc2cc(C(=O)N3CCN(c4ccc(C(=O)Nc5ccc(OC)cc5)nn4)CC3)cc(C(F)(F)F)c2)c1 [B1O020-01, 6-[4-[3-[2-(5-Ethoxypyridin-3-yl)ethynyl]-5-(trifluoromethyl)benzoyl]piperazin-1-yl]-N-(4-methoxyphenyl)pyridazine-3-carboxamide]	8.6	−0.5
CCOc1cccc(-c2cnn(-c3cc(C(=O)N4CCN(c5ccc(C(=O)Nc6ccc(OC)cc6)nn5)CC4)cc(C(F)(F)F)c3)c2)c1 [B1O021-01, 6-[4-[3-[4-(3-Ethoxyphenyl)pyrazol-1-yl]-5-(trifluoromethyl)benzoyl]piperazin-1-yl]-N-(4-methoxyphenyl)pyridazine-3-carboxamide]	2.9	−1.2
CCOc1cncc(-c2cnn(-c3cc(C(=O)N4CCN(c5ccc(C(=O)Nc6ccc(OC)cc6)nn5)CC4)cc(C(F)(F)F)c3)c2)c1 [B1O022-01, 6-[4-[3-[4-(5-Ethoxypyridin-3-yl)pyrazol-1-yl]-5-(trifluoromethyl)benzoyl]piperazin-1-yl]-N-(4-methoxyphenyl)pyridazine-3-carboxamide]	5.6	−1.2
CCOc1cccc(-c2csc(C(=O)N3CCN(c4ccc(C(=O)Nc5ccc(OC)cc5)cc4)CC3)c2)c1 [B1O023-01, 4-[4-[4-(3-Ethoxyphenyl)thiophene-2-carbonyl]piperazin-1-yl]-N-(4-methoxyphenyl)benzamide]	12.4	−0.3
CCOc1cccc(-c2ccc(C(=O)N3CCN(c4ccc(C(=O)Nc5ccc(OC)cc5)cc4)CC3)cc2C)c1 [B1O025-01, 4-[4-[4-(3-Ethoxyphenyl)-3-methylbenzoyl]piperazin-1-yl]-N-(4-methoxyphenyl)benzamide]	−0.4	−4.5
CCOc1cccc(-c2ccc(C(=O)N3CCN(c4ccc(C(=O)Nc5ccc(OC)cc5)cc4)CC3)cc2F)c1 [B1O027-01, 4-[4-[4-(3-Ethoxyphenyl)-3-fluorobenzoyl]piperazin-1-yl]-N-(4-methoxyphenyl)benzamide]	3.8	2.1
CCOc1cccc(C#Cc2ccccc2C(=O)N2CCN(c3ccc(C(=O)Nc4ccc(OC)cc4)cc3)CC2)c1 [B1O029-01, 4-[4-[2-[2-(3-Ethoxyphenyl)ethynyl]benzoyl]piperazin-1-yl]-N-(4-methoxyphenyl)benzamide]	0.0	0.0
CCOc1cncc(C#Cc2ccccc2C(=O)N2CCN(c3ccc(C(=O)Nc4ccc(OC)cc4)cc3)CC2)c1 [B1O030-01, 4-[4-[2-[2-(5-Ethoxypyridin-3-yl)ethynyl]benzoyl]piperazin-1-yl]-N-(4-methoxyphenyl)benzamide]	1.8	−2.0
CCOc1cccc(C#Cc2cncc(C(=O)N3CCN(c4ccc(C(=O)Nc5ccc(OC)cc5)cc4)CC3)c2)c1 [B1O031-01, 4-[4-[5-[2-(3-Ethoxyphenyl)ethynyl]pyridine-3-carbonyl]piperazin-1-yl]-N-(4-methoxyphenyl)benzamide]	−1.3	−4.1
CCOc1cncc(C#Cc2cncc(C(=O)N3CCN(c4ccc(C(=O)Nc5ccc(OC)cc5)cc4)CC3)c2)c1 [B1O032-01, 4-[4-[5-[2-(5-Ethoxypyridin-3-yl)ethynyl]pyridine-3-carbonyl]piperazin-1-yl]-N-(4-methoxyphenyl)benzamide]	4.5	0.9
CCOc1cccc(-c2ccccc2CCC(=O)N2CCN(c3ccc(C(=O)Nc4ccc(OC)cc4)cc3)CC2)c1 [B1O033-01, 4-[4-[3-[2-(3-Ethoxyphenyl)phenyl]propanoyl]piperazin-1-yl]-N-(4-methoxyphenyl)benzamide]	1.9	4.2
CCOc1cncc(-c2ccccc2CCC(=O)N2CCN(c3ccc(C(=O)Nc4ccc(OC)cc4)cc3)CC2)c1 [B1O034-01, 4-[4-[3-[2-(5-Ethoxypyridin-3-yl)phenyl]propanoyl]piperazin-1-yl]-N-(4-methoxyphenyl)benzamide]	0.1	0.2
CCOc1cccc(-c2ccc(C(=O)N3CCN(c4ccc(C(=O)Nc5ccc(OC)cc5)cc4)CC3)c3ccccc23)c1 [B1O035-01, 4-[4-[4-(3-Ethoxyphenyl)naphthalene-1-carbonyl]piperazin-1-yl]-N-(4-methoxyphenyl)benzamide]	4.3	−3.7
CCOc1cncc(-c2ccc(C(=O)N3CCN(c4ccc(C(=O)Nc5ccc(OC)cc5)cc4)CC3)c3ccccc23)c1 [B1O036-01, 4-[4-[4-(5-Ethoxypyridin-3-yl)naphthalene-1-carbonyl]piperazin-1-yl]-N-(4-methoxyphenyl)benzamide]	4.8	0.9
CCOc1cccc(C#Cc2cc(C(=O)N3CCN(c4ccc(C(=O)Nc5ccc(OC)cc5)cc4)CC3)cc(C(F)(F)F)c2)c1 [B1O041-01, 4-[4-[3-[2-(3-Ethoxyphenyl)ethynyl]-5-(trifluoromethyl)benzoyl]piperazin-1-yl]-N-(4-methoxyphenyl)benzamide]	10.4	−2.8
CCOc1cccc(-c2cnn(-c3cc(C(=O)N4CCN(c5ccc(C(=O)Nc6ccc(OC)cc6)cc5)CC4)cc(C(F)(F)F)c3)c2)c1 [B1O043-01, 4-[4-[3-[4-(3-Ethoxyphenyl)pyrazol-1-yl]-5-(trifluoromethyl)benzoyl]piperazin-1-yl]-N-(4-methoxyphenyl)benzamide]	2.2	−5.0

Results, then the compound that gave them:

ASMS ratio (%) n = 1 [%]	ASMS ratio (%) n = 2 [%]	SMILES
3.6	2.3	CCOc1cncc(-c2csc(C(=O)N3CCN(c4ccc(C(=O)Nc5ccc(OC)cc5)cc4)CC3)c2)c1 [B1O024-01, 4-[4-[4-(5-Ethoxypyridin-3-yl)thiophene-2-carbonyl]piperazin-1-yl]-N-(4-methoxyphenyl)benzamide]
1.7	−1.5	CCOc1cncc(-c2ccc(C(=O)N3CCN(c4ccc(C(=O)Nc5ccc(OC)cc5)cc4)CC3)cc2C)c1 [B1O026-01, 4-[4-[4-(5-Ethoxypyridin-3-yl)-3-methylbenzoyl]piperazin-1-yl]-N-(4-methoxyphenyl)benzamide]
4.9	0.4	CCOc1cncc(-c2ccc(C(=O)N3CCN(c4ccc(C(=O)Nc5ccc(OC)cc5)cc4)CC3)cc2F)c1 [B1O028-01, 4-[4-[4-(5-Ethoxypyridin-3-yl)-3-fluorobenzoyl]piperazin-1-yl]-N-(4-methoxyphenyl)benzamide]
4.7	−1.7	CCOc1cccc(-c2cc(C(=O)N3CCN(c4ccc(C(=O)Nc5ccc(OC)cc5)cc4)CC3)cc(C(C)(C)C)c2)c1 [B1O037-01, 4-[4-[3-tert-Butyl-5-(3-ethoxyphenyl)benzoyl]piperazin-1-yl]-N-(4-methoxyphenyl)benzamide]
2.8	−0.7	CCOc1cncc(-c2cc(C(=O)N3CCN(c4ccc(C(=O)Nc5ccc(OC)cc5)cc4)CC3)cc(C(C)(C)C)c2)c1 [B1O038-01, 4-[4-[3-tert-Butyl-5-(5-ethoxypyridin-3-yl)benzoyl]piperazin-1-yl]-N-(4-methoxyphenyl)benzamide]
5.1	0.2	CCOc1cccc(-c2cc(C(=O)N3CCN(c4ccc(C(=O)Nc5ccc(OC)cc5)cc4)CC3)cc(C(F)(F)F)c2)c1 [B1O039-01, 4-[4-[3-(3-Ethoxyphenyl)-5-(trifluoromethyl)benzoyl]piperazin-1-yl]-N-(4-methoxyphenyl)benzamide]
1.8	0.3	CCOc1cncc(-c2cc(C(=O)N3CCN(c4ccc(C(=O)Nc5ccc(OC)cc5)cc4)CC3)cc(C(F)(F)F)c2)c1 [B1O040-01, 4-[4-[3-(5-Ethoxypyridin-3-yl)-5-(trifluoromethyl)benzoyl]piperazin-1-yl]-N-(4-methoxyphenyl)benzamide]
2.8	2.1	CCOc1cncc(C#Cc2cc(C(=O)N3CCN(c4ccc(C(=O)Nc5ccc(OC)cc5)cc4)CC3)cc(C(F)(F)F)c2)c1 [B1O042-01, 4-[4-[3-[2-(5-Ethoxypyridin-3-yl)ethynyl]-5-(trifluoromethyl)benzoyl]piperazin-1-yl]-N-(4-methoxyphenyl)benzamide]
5.8	0.4	CCOc1cncc(-c2cnn(-c3cc(C(=O)N4CCN(c5ccc(C(=O)Nc6ccc(OC)cc6)cc5)CC4)cc(C(F)(F)F)c3)c2)c1 [B1O044-01, 4-[4-[3-[4-(5-Ethoxypyridin-3-yl)pyrazol-1-yl]-5-(trifluoromethyl)benzoyl]piperazin-1-yl]-N-(4-methoxyphenyl)benzamide]
